Measured values: patent publication US20230190695A1, “TRIBUTYRIN SUPPLEMENTATION PROVIDES BENEFITS FOR MENTAL WELLNESS, IMMUNE HEALTH AND FAT METABOLISM” (PHARMAVITE LLC, priority 2021, published 2023)

How the values were obtained:
C57BL/6J mice [1] = test: Cytokine concentrations in terminal serum; assay type: in vivo; details: male mice
Method: (§1) A study was conducted to evaluate tributyrin on stress and mood-related behaviors in female and male C57BL/6J mice. The animals were given immediate ad libitum access to water and standard rodent chow and were acclimated to the facility for 7 days. On study day -3, fat and muscle content was measured using nuclear magnetic resonance spectroscopy (NMR: MiniSpec NMR, Bruker LF50 Body Composition Analyzer). On study day 0, the animals were weighed, blood and fecal samples (1-2 pellets/animal) were collected, and the animals were randomized into their specific treatment group. Daily oral gavage of 4 distinct groups commenced as follows: • Treatment 1: daily PBS vehicle + no acute stress before behavioral measures • Treatment 2: daily PBS vehicle + acute stress before behavioral measures • Treatment 3: daily low-dose tributyrin (60 mg/kg/d) + acute stress before behavioral measures • Treatment 4: daily high-dose tributyrin (200 mg/kg/d) + acute stress before behavioral measures
(§2) After 7 weeks of intervention, blood and fecal samples were collected on study day 49, and fecal collection was repeated on study days 50 and 52. On study day 52, animals assigned to the acute stress groups were acutely restrained for two hours while unstressed animals were housed singly for 140 minutes in fresh cages. […] All animals were then tested in the forced swim test (FST). A retro-orbital blood sample was collected within 15 to 30 minutes after the FST, and fecal pellets were collected (for corticosterone measurements). On study day 53, the animals were weighed, and body composition by NMR was performed a second time. The study was terminated on study day 56, blood was collected and necropsies were performed. Serum cytokine levels were evaluated in terminal serum.

[2] = tested on: combined microbiota of 10 healthy adult human donors; test: Colonic simulation, in vitro gut simulation model: microbial composition
Method: The impact of two doses of tributyrin on gut microbiota composition and microbial metabolites was studied in an in vitro gut simulation model using combined microbiota of 10 healthy adult human donors (5 males, 5 females, 30-60 years old, BMI<30). The retention times and pH ranges were optimized in order to obtain results that are representative for a full GIT simulation. A stabilization period was followed by a two-week control period and three weeks of treatment, where 59% of 300 mg/day or 59% of 1000 mg/day was administered daily (based on release profile described above). Samples were collected at the end of control period and treatment period. Both doses were performed in biological triplicate to account for biological variability. […] Higher ratio of Bacteroidetes:Firmicutes is associated with lean phenotype. Tributyrin treatment increases this ratio as illustrated in FIG. 4 and therefore may provide metabolic health benefit. • At species level, importantly, Akkermansia muciniphila and Faecalibacterium prausnitzii were enriched in tributyrin-treated compartments. • Akkermansia muciniphila is an acetate and propionate-producing, mucin-degrading bacteria. Its presence in the gut is associated with health benefits. An inverse relationship- between colonization of Akkermansia muciniphila and inflammatory conditions or obesity have been shown. […] Both Parabacteroides distasonis and Parabacteroides goldsteinii were stimulated in the proximal colon and distal colon for both low and high doses of tributyrin.

[3] = tested on: combined microbiota of 10 healthy adult human donors; test: Colonic simulation, in vitro gut simulation model: butyrate and microbial metabolites; design: Indole-3-acetic acid / Indole-3-aldehyde / Indole-3-ethanol / Tryptophan / 5-Hydroxyindoleacetic acid / Tryptamine: unit not given here; details: for 1-Acetyl-3-indolecarboxyaldehyde / 5-Hydroxyindoleacetic acid / Indole / Indole-3-acetic acid / Indole-3-acrylic acid / Melatonin / Serotonin / Skatole / Tryptamine / Tryptophan / Indole-3-ethanol / Indole-3-aldehyde / Indole-3-propionic acid: Treatment; for average increase of butyrate as compared to the control period / average increase of butyrate: highest dose (59% of 1000 mg/day); for average increase of butyrate: vs control period
Method: The impact of two doses of tributyrin on gut microbiota composition and microbial metabolites was studied in an in vitro gut simulation model using combined microbiota of 10 healthy adult human donors (5 males, 5 females, 30-60 years old, BMI<30). The retention times and pH ranges were optimized in order to obtain results that are representative for a full GIT simulation. A stabilization period was followed by a two-week control period and three weeks of treatment, where 59% of 300 mg/day or 59% of 1000 mg/day was administered daily (based on release profile described above). Samples were collected at the end of control period and treatment period. Both doses were performed in biological triplicate to account for biological variability.

C57BL/6J mice [4] = test: Fecal corticosterone after forced swim test; assay type: in vivo; details: male mice; 200 mg/kg/d; vs stressed vehicle control
Method: as §1
After 7 weeks of intervention, blood and fecal samples were collected on study day 49, and fecal collection was repeated on study days 50 and 52. On study day 52, animals assigned to the acute stress groups were acutely restrained for two hours while unstressed animals were housed singly for 140 minutes in fresh cages. […] Serum cytokine levels were evaluated in terminal serum. […]

C57BL/6J mice [5] = test: Forced swim test (FST) after acute restraint stress; assay type: in vivo; details: for time immobile in the FST: combined female + male, study day 52; for immobility in the FST: vs sex-matched untreated stressed control
Method: as §1, §2
Forced Swim Test (FST) is a test centered on a rodent’s response to unescapable stress. Results of this test have been interpreted as a measure of susceptibility to negative mood. It is commonly used to measure the effectiveness of antidepressants. Forced swim tests were performed on study day 52 for each cohort of mice.

C57BL/6J mice [6] = test: Fecal metabolite analysis (GC, UHPLC-HRMS); assay type: in vivo
Method: as §1, §2
Gut microbiota metabolizes ingested food and supplements in the colon thereby producing various metabolites, which have an impact on several host biological processes. These metabolites generated in the colon can be measured in the feces. A panel of metabolites were measured in feces collected from experimental mice 8 weeks post-treatment. Fecal SCFA were measured by Gas Chromatography (GC) and tryptophan metabolites were measured using Ultra High Performance Liquid Chromatography High Resolution Mass Spectrometry (UHPLC-HRMS). Comparisons were made between stressed untreated mice and tributyrin treated stressed mice.

[7] = tested on: Caco-2/THP1 (colonic cells/macrophages) co-culture; test: Caco-2/THP1 co-culture immunomodulation model; assay type: cell-based
Excerpt: An in vitro Caco-2/THP1 (colonic cells/macrophages) co-culture model was used to assess the effect of microbial metabolites on proinflammatory or ant-inflammatory cytokines and chemokines which serve as markers for immunomodulation.

C57BL/6J mice [8] = test: Body weight and body composition by NMR; assay type: in vivo; details: for final fat as a percentage of baseline: all mice, vs combined unstressed untreated control
Method: as §1, §2

[9] = 60 mg/kg/d, vs stressed vehicle control
[10] = proximal colon and distal colon, both low and high doses
[11] = Distal Colon, High Dose (59% of 1000 mg/day)
[12] = Distal Colon, Low Dose (59% of 300 mg/day)
[13] = Proximal Colon, High Dose (59% of 1000 mg/day)
[14] = Proximal Colon, Low Dose (59% of 300 mg/day)
[15] = low dose (60 mg/kg/d), 8 weeks post-treatment
[16] = DC-Low (distal colon, low dose)
[17] = PC-High (proximal colon, high dose)
[18] = PC-Low (proximal colon, low dose)

With `CCCC(=O)OCC(COC(=O)CCC)OC(=O)CCC` [tributyrin] the “IL-2 in terminal serum” value (C57BL/6J mice [1]; 60 mg/kg/d, vs stressed mice) was “reduced significantly”, the “IL-4 in terminal serum” value (C57BL/6J mice [1]; 60 mg/kg/d, vs stressed mice) was “reduced significantly” and the “IFNγ in terminal serum” value (C57BL/6J mice [1]; [9]) was “significantly reduced”. For the same molecule, the “MIP-1a in terminal serum” value (C57BL/6J mice [1]; [9]) was “significantly reduced”, the “IL-4 in terminal serum” value (C57BL/6J mice [1]; 200 mg/kg/d, vs stressed mice) was “reduced significantly” and the “MIP-1a in terminal serum” value (C57BL/6J mice [1]; 200 mg/kg/d, vs stressed vehicle control) was “significantly reduced”. For the same molecule, the Faecalibacterium prausnitzii abundance ([2]; PC and DC, low and high dose) was “enriched”, the Akkermansia muciniphila abundance ([2]; PC and DC, low- and high-dose) was “enriched” and the “gut microbial diversity (Simpson Diversity Index)” value ([2]; both low and high dose) was “increase”. For the same molecule, the “ratio of Bacteroidetes:Firmicutes” value ([2]; distal colon, low and high dose vs control (FIG. 4)) was “increases”, the “Parabacteroides merdae ATCC 43184 abundance” value ([2]; proximal colon) was “specific stimulation” and the Tannerellaceae levels ([2]; proximal colon) was “increased”. For the same molecule, the Parabacteroides distasonis abundance [2, 10] was “stimulated”, the Parabacteroides goldsteinii abundance [2, 10] was “stimulated” and the 1-Acetyl-3-indolecarboxyaldehyde [3, 11] was “< LOD”. For the same molecule, the 5-Hydroxyindoleacetic acid [3, 11] was 0.001, the Indole [3, 11] was “< LOD” and the Indole-3-acetic acid [3, 11] was 0.644. For the same molecule, the Indole-3-acrylic acid [3, 11] was “< LOD”, the Melatonin [3, 11] was “< LOD” and the Serotonin [3, 11] was “< LOD”. For the same molecule, the Skatole [3, 11] was “< LOD”, the Tryptamine [3, 11] was 0.175 and the Tryptophan [3, 11] was 0.095. The 1-Acetyl-3-indolecarboxyaldehyde [3, 12] was “< LOD”, the 5-Hydroxyindoleacetic acid [3, 12] was 0.001 and the Indole [3, 12] was “< LOD”. For the same molecule, the Indole-3-acrylic acid [3, 12] was “< LOD”, the Indole-3-ethanol [3, 12] was 0.284 and the Melatonin [3, 12] was “< LOD”. The Serotonin [3, 12] was “< LOD”, the Skatole [3, 12] was “< LOD” and the Tryptamine [3, 12] was 0.205. For the same molecule, the Tryptophan [3, 12] was 0.116, the 1-Acetyl-3-indolecarboxyaldehyde [3, 13] was “< LOD” and the 5-Hydroxyindoleacetic acid [3, 13] was 0.008. For the same molecule, the Indole [3, 13] was “< LOD”, the Indole-3-acetic acid [3, 13] was 0.916 and the Indole-3-acrylic acid [3, 13] was “< LOD”. For the same molecule, the Indole-3-aldehyde [3, 13] was 0.058, the Indole-3-propionic acid [3, 13] was 0.01 and the Melatonin [3, 13] was “< LOD”. The Serotonin [3, 13] was “< LOD”, the Skatole [3, 13] was “< LOD” and the Tryptamine [3, 13] was 0.105. For the same molecule, the 1-Acetyl-3-indolecarboxyaldehyde [3, 14] was “< LOD”, the 5-Hydroxyindoleacetic acid [3, 14] was 0.01 and the Indole [3, 14] was “< LOD”. For the same molecule, the Indole-3-acrylic acid [3, 14] was “< LOD”, the Indole-3-aldehyde [3, 14] was 0.06 and the Indole-3-ethanol [3, 14] was 0.266. The Indole-3-propionic acid [3, 14] was 0.008, the Melatonin [3, 14] was “< LOD” and the Serotonin [3, 14] was “< LOD”. For the same molecule, the Skatole [3, 14] was “< LOD”, the Tryptamine [3, 14] was 0.118 and the butyrate levels ([3]; both proximal colon and distal colon, on initiation of treatment) was “significantly enhanced”. The “average increase of butyrate as compared to the control period” value ([3]; distal colon) was 78.8%, the “average increase of butyrate” value ([3]; distal colon) was 7.7 mM and the “average increase of butyrate as compared to the control period” value ([3]; proximal colon) was 91.9%. The “average increase of butyrate” value ([3]; proximal colon) was 7.4 mM, the “fecal corticosterone levels after FST” value (C57BL/6J mice [4]) was “statistical reduction” and the “time immobile in the FST” value (C57BL/6J mice [5]; 60 mg/kg/d oral gavage, vs stressed untreated control) was “reductions in time immobile in the FST were statistically significant”. For the same molecule, the “immobility in the FST” value (C57BL/6J mice [5]; 60 mg/kg, females) was “reduced immobility”, the “time immobile in the FST” value (C57BL/6J mice [5]; 200 mg/kg/d oral gavage, vs stressed untreated control and vs unstressed control) was “reductions in time immobile in the FST were statistically significant” and the “immobility in the FST” value (C57BL/6J mice [5]; 200 mg/kg, males) was “reduced immobility”. For the same molecule, the tryptophan in feces (C57BL/6J mice [6]; high dose (200 mg/kg/d), 8 weeks post-treatment) was 142.8 ± 53.4 ng/mg, the “Indole-3-acetic acid in feces” value (C57BL/6J mice [6]; [15]) was 1.56 ± 1.17 ng/mg and the tryptophan in feces (C57BL/6J mice [6]; [15]) was 154.9 ± 98.7 ng/mg. For the same molecule, the “fecal SCFA levels” value (C57BL/6J mice [6]; treated mice vs untreated stressed controls) was “No differences”, the “IL6, treatment suspensions normalized to blank control suspensions” value (“IL6, treatment suspensions normalized” for short) [7, 16] was 1.13 and the “IL10, treatment suspensions normalized to blank control suspensions” value [7, 16] was 1.03. The “IL-1B, treatment suspensions normalized to blank control suspensions” value (“IL-1B, treatment suspensions normalized” below) [7, 16] was 1.07, the “MCP1, treatment suspensions normalized to blank control suspensions” value [7, 16] was 1.05 and the “IL6, treatment suspensions normalized” value [7, 17] was 1.31. The “IL8, treatment suspensions normalized to blank control suspensions” value [7, 17] was 1.03, the “IL-1B, treatment suspensions normalized” value [7, 17] was 1.08 and the “MCP1, treatment suspensions normalized to blank control suspensions” value [7, 17] was 0.97. For the same molecule, the “IL6, treatment suspensions normalized” value [7, 18] was 1.01, the “IL8, treatment suspensions normalized to blank control suspensions” value [7, 18] was 1.3 and the “IL10, treatment suspensions normalized to blank control suspensions” value [7, 18] was 1.06. For the same molecule, the “IL-1B, treatment suspensions normalized” value [7, 18] was 1.08, the “TNFa, treatment suspensions normalized to blank control suspensions” value [7, 18] was 1.06 and the “final fat as a percentage of baseline” value (C57BL/6J mice [8]; 60 mg/kg/d) was “statistically reduced”. The “final fat as a percentage of baseline” value (C57BL/6J mice [8]; 200 mg/kg/d) was “statistically reduced” and the “Lean:Fat ratio” value (C57BL/6J mice [8]; treated mice vs untreated control) was “significantly increased”.
